Source: patent US20230322785A1, “ADENOSINE A2A AND A2B RECEPTOR DUAL ANTAGONISTS FOR IMMUNO-ONCOLOGY” (Merck Sharp & Dohme LLC, priority 2020, published 2023)

target: T1, human A2A adenosine receptor (Homo sapiens, UniProt P29274); assay: A2A binding affinity, Method (B): scintillation proximity assay (SPA) with [3H]SCH58261; settings: membranes of HEK293 or CHO cells expressing the human receptor
T1 construct: expressed in transfected cells; host or cells: HEK293 or CHO cells
From the text: Method (A) describes the procedure used to measure A2A binding affinity using radioligand binding. Method (B) describes the procedure used to measure A2A binding affinity using SPA technology. The method used to measure A2B binding affinity is also described below. The method used to determine the A2A IC50 value reported for each compound in the table is indicated next to the reported value. The A2B IC50 value measured using the A2B binding affinity assay is shown in the table next to the compound under the corresponding A2A value.
The A2A receptor affinity binding assay measured the amount of binding of a tritiated ligand with high affinity for the A2A adenosine receptor to membranes made from HEK293 or CHO cells recombinantly expressing the human A2A adenosine receptor, in the presence of varying concentrations of a compound of the invention. The data were generated using either filtration binding or a homogenous scintillation proximity assay (SPA).
Method (B): Measurement of A2A Binding Affinity Using SPA
Binding affinity using SPA was conducted as follows. Test compounds (50 nL) were dispensed into individual wells of a 384-well OptiPlate™ well (Perkin Elmer) by Echo® acoustic liquid transfer (Labcyte). 20 µL of 1.25 nM [^3H] SCH58261 ((7-(2-phenylethyl)-5-amino-2-(2-furyl)-pyrazolo-[4,3-e]-1,2,4-triazolo[1,5-c]pyrimidine)) in DPBS assay buffer (Dulbecco’s phosphate buffered saline without calcium and magnesium, ThermoFisher Scientific, Cat. No. A1285601) supplemented with 10 mM MgCl2 was added. A2A receptor-expressing membranes were incubated with 20 µg/mL adenosine deaminase (Roche, Cat. No. 10 102 105 001) for 15 min at room temperature. The receptor-expressing membranes were then combined with wheat germ agglutinin-coated yttrium silicate SPA beads (GE Healthcare, Cat. No. RPNQ0023) in a ratio of […] (w/w) and incubated for 30 min at room temperature. 30 µL of the membrane/bead mixture (0.25 µg and 25 µg per well respectively) were added to the 384-well OptiPlate™ well. To define total and non-specific binding, wells containing 1% DMSO or 1 µM CGS 15943 (Tocris Bioscience, Cat. No. 1699) respectively were also included in the experiment. The plate was incubated for 1 h at room temperature with agitation. The assay plate was then incubated for an h to allow the beads to settle before data were collected using a TopCount® (Perkin Elmer) scintillation counter. After normalization to total and non-specific binding, the percent effect at each compound concentration was calculated. The plot of percent effect versus the log of compound concentration was analyzed electronically using a 4-parameter logistic fit based on the Levenberg-Marquardt algorithm to generate IC50 values.

T1 sequence (P29274 whole entry): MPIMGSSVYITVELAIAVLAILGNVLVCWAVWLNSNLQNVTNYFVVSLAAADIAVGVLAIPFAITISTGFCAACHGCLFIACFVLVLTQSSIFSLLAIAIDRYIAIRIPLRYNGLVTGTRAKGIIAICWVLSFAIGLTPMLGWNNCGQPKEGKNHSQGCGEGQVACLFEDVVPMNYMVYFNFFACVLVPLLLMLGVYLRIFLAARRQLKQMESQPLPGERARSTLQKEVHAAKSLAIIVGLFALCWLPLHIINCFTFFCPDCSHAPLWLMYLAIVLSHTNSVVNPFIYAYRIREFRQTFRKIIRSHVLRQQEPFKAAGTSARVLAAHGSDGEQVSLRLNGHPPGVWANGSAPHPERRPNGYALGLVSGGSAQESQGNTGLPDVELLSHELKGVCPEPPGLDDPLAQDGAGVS

| IC50 | SMILES |
| --- | --- |
| 5.2 nM | COc1cccc2c1nc(N)n1nc(CN(Cc3ccc(NC(=O)C(C)(C)C)nc3)CC3CC3)nc21 [Example 16.9] |
| 5.7 nM | COc1cccc2c1nc(N)n1nc(CN(CC3CC3)C3CN(C(=O)OC(C)(C)C)C3)nc21 [Example 16.12, tert-butyl 3-(((5-amino-7-methoxy-[1,2,4]triazolo[1,5-c]quinazolin-2-yl)methyl)(cyclopropylmethyl)amino)azetidine-1-carboxylate] |
| 12.2 nM | COc1cccc2c1nc(N)n1nc(CCNCC(C)(F)F)nc21 [Example 23.3, 2-(2-((2,2-difluoropropyl)amino)ethyl)-7-methoxy-[1,2,4]triazolo[1,5-c]quinazolin-5-amine] |
| 22.6 nM | COc1cccc2c1nc(N)n1nc(CN(Cc3ccc(OC(F)(F)F)cc3)C(=O)NC(C)C)nc21 [Example 20.3, 1-((5-amino-7-methoxy-[1,2,4]triazolo[1,5-c]quinazolin-2-yl)methyl)-3-isopropyl-1-(4-(trifluoromethoxy)benzyl)urea] |
| 5.7 nM | COc1cccc2c1nc(N)n1nc(CNC(=O)NCc3ccc(Cl)cc3)nc21 [Example 20.4, 1-((5-amino-7-methoxy-[1,2,4]triazolo[1,5-c]quinazolin-2-yl)methyl)-3-(4-chlorobenzyl)urea] |
| 5.8 nM | COc1cccc2c1nc(N)n1nc(CCN[C@H](C)C(F)(F)F)nc21 [Example 23.4, (R)-7-methoxy-2-(2-((1,1,1-trifluoropropan-2-yl)amino)ethyl)-[1,2,4]triazolo[1,5-c]quinazolin-5-amine] |
| 9.4 nM | COc1cccc2c1nc(N)n1nc(CN(Cc3ncco3)CC3CC3)nc21 [Example 16.11, 2-(((cyclopropylmethyl)(oxazol-2-ylmethyl)amino)methyl)-7-methoxy-[1,2,4]triazolo[1,5-c]quinazolin-5-amine] |
| 9.2 nM | COc1ccc(CN(Cc2nc3c4cccc(OC)c4nc(N)n3n2)CC2CC2)cn1 [Example 16.5, 2-(((cyclopropylmethyl)((6-methoxypyridin-3-yl)methyl)amino)methyl)-7-methoxy-[1,2,4]triazolo[1,5-c]quinazolin-5-amine] |

More lines, now with the values behind:

| SMILES | IC50 |
| --- | --- |
| COc1cccc2c1nc(N)n1nc(CN(C)CCc3ccc(C(F)(F)F)cc3)nc21 [Example 15.13, 7-methoxy-2-((methyl(4-(trifluoromethyl)phenethyl)amino)methyl)-[1,2,4]triazolo[1,5-c]quinazolin-5-amine] | 7.9 nM |
| COc1cccc2c1nc(N)n1nc(CC(=O)N[C@H]3CCOc4cc(F)ccc43)nc21 [Example 4.7, (S)-2-(5-amino-7-methoxy-[1,2,4]triazolo[1,5-c]quinazolin-2-yl)-N-(7-fluorochroman-4-yl)acetamide] | 6.7 nM |
| COc1cccc2c1nc(N)n1nc(CNC(C)(C)c3cccnc3)nc21 [Example 7.5, 7-methoxy-2-(((2-(pyridin-3-yl)propan-2-yl)amino)methyl)-[1,2,4]triazolo[1,5-c]quinazolin-5-amine] | 20.5 nM |
| COc1cccc2c1nc(N)n1nc(CNCc3ccc(C(F)(F)F)cc3)nc21 [Example 7.1, 7-methoxy-2-(((4-(trifluoromethyl)benzyl)amino)methyl)-[1,2,4]triazolo[1,5-c]quinazolin-5-amine] | 8.9 nM |
| CCNCc1nc2c3cccc(OC)c3nc(N)n2n1 [Example 10.4, 2-((ethylamino)methyl)-7-methoxy-[1,2,4]triazolo[1,5-c]quinazolin-5-amine] | 46 nM |
| CCCN(Cc1ccc(C(F)(F)F)cc1)Cc1nc2c3cccc(OC)c3nc(N)n2n1 [Example 15.3, 7-methoxy-2-((propyl(4-(trifluoromethyl)benzyl)amino)methyl)-[1,2,4]triazolo[1,5-c]quinazolin-5-amine] | 2.3 nM |
| COc1cccc2c1nc(N)n1nc(CC(=O)NCc3ccc(OC(F)(F)F)cc3)nc21 [Example 4.5, 2-(5-amino-7-methoxy-[1,2,4]triazolo[1,5-c]quinazolin-2-yl)-N-(4-(trifluoromethoxy)benzyl)acetamide] | 5.8 nM |
| COc1cccc2c1nc(N)n1nc(CN[C@H](C)[C@@H](O)c3cc(C(F)(F)F)cc(C(F)(F)F)c3)nc21 [Example 10.1, (1S,2R)-2-(((5-amino-7-methoxy-[1,2,4]triazolo[1,5-c]quinazolin-2-yl)methyl)amino)-1-(3,5-bis(trifluoromethyl)phenyl)propan-1-ol] | 40.2 nM |
| COCc1ccc(CNCc2nc3c4cccc(OC)c4nc(N)n3n2)cc1 [Example 7.7, 7-methoxy-2-(((4-(methoxymethyl)benzyl)amino)methyl)-[1,2,4]triazol[1,5-c]quinazolin-5-amine] | 2.2 nM |
| COc1cccc2c1nc(N)n1nc(CN[C@H](C)C(F)(F)F)nc21 [Example 10.8, (R)-7-methoxy-2-(((1,1,1-trifluoropropan-2-yl)amino)methyl)-[1,2,4]triazolo[1,5-c]quinazolin-5-amine] | 3.9 nM |
| COc1cccc2c1nc(N)n1nc(CNC(C)(C)C(F)(F)F)nc21 [Example 10.10, 7-methoxy-2-(((1,1,1-trifluoro-2-methylpropan-2-yl)amino)methyl)-[1,2,4]triazolo[1,5-c]quinazolin-5-amine] | 4.8 nM |
| CCN(Cc1ccccn1)Cc1nc2c3cccc(OC)c3nc(N)n2n1 [Example 7.4, 2-((ethyl(pyridin-2-ylmethyl)amino)methyl)-7-methoxy-[1,2,4]triazolo[1,5-c]quinazolin-5-amine] | 31.4 nM |
| COc1cccc2c1nc(N)n1nc(CN(Cc3ccc(C(F)(F)F)cc3)CC3CC3)nc21 [Example 15.2, 2-(((cyclopropylmethyl)(4-(trifluoromethyl)benzyl)amino)methyl)-7-methoxy-[1,2,4]triazolo[1,5-c]quinazolin-5-amine] | 3 nM |
| COc1ccc(CCC(=O)NCc2nc3c4cccc(OC)c4nc(N)n3n2)cc1 [Example 2.4] | 7.5 nM |
| COc1cccc2c1nc(N)n1nc(CN(Cc3ccc(OC(F)(F)F)cc3)CC3CCCCC3)nc21 [Example 15.11, 2-(((cyclohexylmethyl)(4-(trifluoromethoxy)benzyl)amino)methyl)-7-methoxy-[1,2,4]triazolo[1,5-c]quinazolin-5-amine] | 123 nM |
| COCCN(CCc1ccc(C(F)(F)F)cc1)Cc1nc2c3cccc(OC)c3nc(N)n2n1 [Example 15.14, 7-methoxy-2-(((2-methoxyethyl)(4-(trifluoromethyl)phenethyl)amino)methyl)-[1,2,4]triazolo[1,5-c]quinazolin-5-amine] | 16.5 nM |
| COc1cccc2c1nc(N)n1nc(CN[C@@H](C)c3ccc(C(F)(F)F)cc3)nc21 [Example 7.2, (S)-7-methoxy-2-(((1-(4-(trifluoromethyl)phenyl)ethyl)amino)methyl)-[1,2,4]triazolo[1,5-c]quinazolin-5-amine] | 7.2 nM |
| COc1cccc2c1nc(N)n1nc(CN(Cc3ccc(OC(F)(F)F)cc3)CC3CCC3)nc21 [Example 15.10, 2-(((cyclobutylmethyl)(4-(trifluoromethoxy)benzyl)amino)methyl)-7-methoxy-[1,2,4]triazolo[1,5-c]quinazolin-5-amine] | 8.5 nM |
| COc1cccc2c1nc(N)n1nc(CNCc3ccc(OC(F)(F)F)cc3)nc21 [Example 8.6, 7-methoxy-2-(((4-(trifluoromethoxy)benzyl)amino)methyl)-[1,2,4]triazolo[1,5-c]quinazolin-5-amine] | 8.9 nM |
